This passage reports TGI results from PubChem BioAssay (NCI).

Holding throughout (experiment): DTP human tumour cell line panel, 48 h
Assay [1] has as its system A498 renal.
Assay [2] concerns BT-549 breast.
The subject of assay [3] is COLO 205 colon.
Assay [4] concerns DU-145 prostate.
Assay [5] relates to HCC-2998 colon.
Assay [6] has as its system HL-60(TB) leukemia.
Assay [7] deals with HT29 colon.
For assay [8], the system named is IGROV1 ovarian.
Assay [9] concerns K-562 leukemia.
Assay [10] has as its system M14 melanoma.
Assay [11] relates to MDA-MB-435.
In assay [12] the test system is NCI-H460 lung.
Assay [13] has as its system PC-3 prostate.
Assay [14] has as its system RXF 393 renal.
Assay [15] concerns SF-268 CNS.
For assay [16], the system named is SK-MEL-2 melanoma.
In assay [17] the test system is SK-MEL-28 melanoma.
The test system of assay [18] is SNB-19 CNS.
The subject of assay [19] is UO-31 renal.

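96-well plates; 48 h exposure; 5 concentrations. Endpoints by linear interpolation between flanking doses. Not reached: highest tested concentration assigned. TGI: total growth inhibition.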

For the compound `COC(=O)[C@H](Cc1ccccc1)NC(=O)N1CCCN(C(=O)N[C@@H](Cc2ccccc2)C(=O)OC)CCCN(C(=O)N[C@@H](Cc2ccccc2)C(=O)OC)CCC1`, the TGI (as a rule, the concentration giving total growth inhibition) in [1] stood at 44.3 µM; in [2], 57.1 µM; in assay [3], 34.8 µM; in [4], 34 µM; in assay [5], 38.6 µM; in assay [6] it was 69.2 µM. In addition, the TGI in assay [7] is 33.5 µM; in [8] it was 31.3 µM; in assay [9], > 100 µM; in assay [10], 32.4 µM; in [11], 54.7 µM; in assay [12], 81.5 µM. Moreover, the TGI was found to be 31.1 µM in [13]; 32.6 µM in assay [14]; 34 µM in [15]; 29.5 µM in assay [16]; 35.4 µM in [17]; 74.8 µM in assay [18]. Moreover, the TGI in assay [19] stood at 29.4 µM.
On to `N#CC(c1ccnc(Cl)n1)c1nc2ccccc2s1` (stereo not given), for which the TGI was 46.7 µM in assay [1]; > 26 µM in assay [2]; 24.6 µM in assay [3]; > 100 µM in [4]; 46.8 µM in [5]; 5.43 µM in assay [6]. Also, the TGI in assay [7] is 10.3 µM; in assay [8], > 53.2 µM; in [9], 76.2 µM; in [10], 20.4 µM; in [11], > 100 µM; in [12] it was > 100 µM. Besides, the TGI in assay [13] was 26 µM; in assay [14], > 62.7 µM; in assay [15] it was > 63.6 µM; in [16], 28.1 µM; in [17], > 100 µM; in assay [18], > 75.1 µM. Moreover, the TGI in assay [19] worked out at 28.4 µM.
With `CCCN1CC=C(c2cc(C(=O)OCC)[nH]c2-c2cc(C)no2)C1=O`, the TGI in assay [1], in assay [2], in assay [3], in assay [4], in [5] and in assay [6] was > 100 µM each time. Besides, the TGI in assay [7], in assay [8], in assay [9], in assay [10], in [11] and in assay [12] was > 100 µM in each case. For the same compound, the TGI in assay [13], in assay [14], in [15], in [16], in assay [17] and in assay [18] was > 100 µM each time. In addition, the TGI in assay [19] is > 100 µM.
In the case of `Cn1c(N)c(C(N)=O)[nH]c1=S`, the TGI in assay [1], in assay [2], in [3], in assay [4], in assay [5] and in [6] was > 100 µM each time. Moreover, the TGI in assay [7], in assay [8], in assay [9], in assay [10], in assay [11] and in [12] was > 100 µM throughout. Also, the TGI in assay [13], in assay [14], in assay [15], in assay [16], in assay [17] and in assay [18] was > 100 µM in each case. The TGI in assay [19] is > 100 µM.
Regarding `CC(=O)c1c(SCCN2CCCC2)n(-c2ccccc2)c(=S)n(-c2ccccc2)c1=O`, the TGI in assay [1] came to 27.7 µM; in assay [2], 28.6 µM; in assay [3] it was 3.48 µM; in [4] it was 8.85 µM; in [5] it was 11.9 µM; in [6] it was 6.93 µM. Also, the TGI was 20.7 µM in assay [7]; 19.4 µM in assay [8]; > 26.7 µM in assay [9]; 6.63 µM in assay [10]; 13.2 µM in assay [11]; > 46.6 µM in assay [12]. For the same compound, the TGI in assay [13] is 10.8 µM; in assay [14], 5.63 µM; in assay [15] it was 33.2 µM; in assay [16] it was 50.8 µM; in assay [17], 14.2 µM; in [18], > 77.1 µM. For the same compound, the TGI in [19] worked out at 2.73 µM.
